{"source": "patent US6846659B2", "about": "“Isolation and bacterial expression of a sesquiterpene synthase cDNA clone from peppermint (Mentha x piperita, L.) that produces the aphid alarm pheromone (E)-β-farnesene” (Washington State University Research Foundation, priority 1997, dated 2005)", "molecules": {"B1": {"name": "recombinant (E)-β-farnesene synthase (SEQ ID NO:2) (Mentha x piperita) (protein)", "chain": "MATNGVVISCLREVRPPMTKHAPSMWTDTFSNFSLDDKEQQKCSETIEALKQEARGMLMAATTPLQQMTLIDTLERLGLSFHFETEIEYKIELINAAEDDGFDLFATALRFRLLRQHQRHVSCDVFDKFIDKDGKFEESLSNNVEGLLSLYEAAHVGFREERILQEAVNFTRHHLEGAELDQSPLLIREKVKRALEHPLHRDFPIVYARLFISIYEKDDSRDELLLKLSKVNFKFMQNLYKEELSQLSRWWNTWNLKSKLPYARDRVVEAYVWGVGYHYEPQYSYVRMGLAKGVLICGIMDDTYDNYATLNEAQLFTQVLDKWDRDEAERLPEYMKIVYRFILSIYENYERDAAKLGKSFAAPYFKETVKQLARAFNEEQKWVMERQLPSFQDYVKNSEKTSCIYTMFASIIPGLKSVTQETIDWIKSEPTLATSTAMIGRYWNDTSSQLRESKGGEMLTALDFHMKEYGLTKEEAASKFEGLVEETWKDINKEFIATTNYNVGREIAITFLNYARICEASYSKTDGDAYSDPNVAKANVVALFVDAIVF", "notes": "made in house; host or cells: E. coli XL1-Blue harboring pBluescript clone p43"}}, "key": {"aphids": {"system": "aphids", "details": "dose of 100 ng/aphid; cited from earlier work"}, "whiteflies": {"system": "whiteflies", "details": "vapor; cited from earlier work"}, "[1]": {"biological_target": "T1, recombinant (E)-β-farnesene synthase (SEQ ID NO:2) (Mentha piperita, UniProt O48935)", "T1 construct": "made in house; host or cells: E. coli XL1-Blue harboring pBluescript clone p43", "T1 sequence (O48935 1-550)": "B1 chain", "assay": "Kinetic characterization of recombinant, partially purified (E)-β-farnesene synthase (sesquiterpene/monoterpene/diterpene synthase assay)", "type": "biochemical, peppermint (Mentha piperita)", "description": "(§1) Cell-Free Assays. […] The sonicate was centrifuged at 3700×g for 15 minutes, and an aliquot of the supernatant was then placed in a 10 ml screw-capped glass test tube containing divalent metal ions (10 mM MgCl2 and 1 mM MnCl2) and substrate (7.3 μM [1-^3H]FDP). The aqueous layer was overlaid with 1 ml pentane and the seated tube was incubated at 30° C. for two hours. The pentane overlay was then collected and the aqueous layer was extracted twice (1 ml) with pentane. The combined pentane extracts were passed through an anhydrous MgSO4-silica gel column to obtain the labeled hydrocarbon fraction for GC-MS analysis, or for radio-GC analysis using peppermint oil as an internal standard.\n(§2) The chilled sonicate was cleared by centrifugation and the supernatant was assayed for sesquiterpene synthase activity as before, or for monoterpene synthase activity (with 4.5 μM [1-^3H]GDP) or diterpene synthase activity (with 10 μM [1-^3H]GGDP). In all cases, the pentane-soluble reaction products were purified by MgSO4-silica gel chromatography, as above, to prepare the olefin fraction for further analysis.\n(§3) For determination of the pH optimum of (E)-β-farnesene synthase (SEQ ID NO:2), the preparation was adjusted with 50 mM Mopso (to a pH of 6.5, 6.75, 7.0, 7.25, 7.5, 8.0, or 8.5) before the assay. Kinetic constants for FDP, GDP, Mg^++ and Mn^++ were determined using a preparation of (E)-β-farnesene synthase (SEQ ID NO:2) that was partially purified by anion-exchange chromatography (on a Mono-Q column (Pharmacia) equilibrated with assay buffer and eluted with a linear KCl gradient (0 to 500 mM) in assay buffer). The 210-230 mM fraction containing the (E)-β-farnesene synthase (SEQ ID NO:2) was used for kinetic evaluation of FDP and GDP as substrates (concentration range 0.31 to 20 μM, with saturating Mg^++). […] Kinetic constants for Mg^++ and Mn^++ (assay range 1 μM to 2 mM of the chloride salts) were then determined at 7.3 μM [1-^3H]FDP. […]"}, "[2]": {"substrate": "CC(C)=CCC/C(C)=C/CC/C(C)=C/CO[P@@](=O)(O)OP(=O)(O)O", "assay": "Kinetic characterization of recombinant, partially purified (E)-β-farnesene synthase (sesquiterpene/monoterpene/diterpene synthase assay)", "type": "biochemical, peppermint (Mentha piperita)", "details": "other: substrate range 0.31 to 20 μM, saturating Mg++; double reciprocal plot", "description": "as §1, §2, §3"}}}
{"molecule": "C=CC(=C)CC/C=C(\\C)CCC=C(C)C", "note": "[(E)-β-farnesene]", "values": [{"measurement": "acute toxicity to aphids", "setting": "aphids", "result": "acutely toxic"}, {"measurement": "toxicity to whiteflies", "setting": "whiteflies", "result": "toxic"}]}
{"molecule": "CC(C)=CCC/C(C)=C/COP(=O)(O)OP(=O)(O)O", "note": "[GDP, geranyl diphosphate]", "values": [{"measurement": "Km", "setting": "[1]; substrate range 0.31 to 20 μM, saturating Mg++, double reciprocal plot", "result": 1.5, "unit": "µM"}]}
{"molecule": "CC(C)=CCC/C(C)=C/CC/C(C)=C/CC/C(C)=C/COP(=O)(O)OP(=O)(O)O", "note": "[[1-^3H]GGDP, geranylgeranyl diphosphate]", "values": [{"measurement": "activity of the synthase with the substrate analog", "setting": "[1]; C20 substrate analog, 10 μM", "result": "inactive"}]}
{"molecule": "B1", "values": [{"measurement": "Km", "setting": "[2]", "result": 0.6, "unit": "µM"}]}
